Earlier results as cited in US20100215725A1, “PHARMACEUTICAL COMPOSITION CONTAINING IDEBENONE FOR THE TREATMENT OF LIVER DISORDERS” (priority 2009, published 2010).

Test system: rat liver microsomes
Details: pro-oxidative system NADPH/ADP/Fe3+

Compound | concentration offering complete protection against lipid peroxidation in microsomes
COC1=C(OC)C(=O)C(CCCCCCCCCCO)=C(C)C1=O [Idebenone, 2,3-dimethoxy-5-methyl-6-(10-hydroxydecyl)-1,4-benzoquinone] | 20 µM
COC1=C(OC)C(=O)C(C/C=C(\C)CC/C=C(\C)CC/C=C(\C)CC/C=C(\C)CC/C=C(\C)CC/C=C(\C)CC/C=C(\C)CC/C=C(\C)CC/C=C(\C)CCC=C(C)C)=C(C)C1=O [coenzyme Q-10] | 100 µM
